Assay results taken from patent publication US11414379B2, “SPAK kinase inhibitors as neuroprotective agents” (United States Government as represented by the Department …, priority 2018, dated 2022).

What was measured:
SPAK-WNK1 interaction = target: T1, SPAK-WNK1 interaction (Homo sapiens, UniProt Q9UEW8); assay: Co-immunoprecipitation of WNK1 with SPAK from HEK293 cell lysates; assay type: binding; details: 30 min on ice
T1 construct: Non-transfected HEK293 cell lysates; endogenous in cells; host or cells: HEK293 (non-transfected) lysate
Description: Referring to FIG. 6, evidence that SPAK associates with WNK1, and interaction is disrupted by SPAK CCT mutation is shown. […] Immunoprecipitates were subjected to immunoblot probed with antibody to total WNK1 and antibody to total SPAK.

[1] = system: rats post-IVH (CSF hypersecretion); assay: Rate of CSF production, post-hemorrhagic hydrocephalus model; assay type: in vivo, rat; details: ICV treatment for 48 hr
Procedure: All animal experiments were approved by the Institutional Animal Care and Use Committee (IACUC) of the Yale University, and in accordance with the guidelines and regulations in the NIH Guide for the Care and Use of Laboratory Animals. Male Wistar rats (Harlan, Indianapolis, Ind., USA), age 8 weeks (220-230 g), were anesthetized (60 mg/kg ketamine plus 7.5 mg/kg xylazine, IP) and allowed to breathe room air spontaneously. Body temperature was maintained at 37±1° C. (Harvard Apparatus, Holliston, Mass., USA) throughout the course of the experiments. PHH was modeled using a modified protocol based on previously described methods (Karimy et al. (2015) Nature medicine 23: 997-1003; Simard et al. (2011) Transl Stroke Res 2: 227-231). […]
Rates of CSF production were measured using the method we recently published (Karimy et al. (2015) Nature medicine 23: 997-1003). […] The volume (V) of CSF that forms at a given timepoint is calculated as: V (mm^3)=π·r^2·d, where r is the radius of the capillary tube and d is the distance CSF traveled within the capillary. The rate of CSF formation (μL/min) can be calculated from the slope of the volume-time relationship. A baseline rate of spontaneous CSF secretion (no drug infusion) was calculated over 30 minutes prior to drug infusion, then compared to the calculated rate of CSF formation following 30 minutes of ZT-1a infusion. […]

pSPAK/pOSR1 and pNKCC1 = assay: Phosphorylation in ischemic mouse brains, immunoblot; assay type: in vivo
Procedure: The membranes were incubated for 30 min with TBST (Tris-buffered saline, 0.05% Tween-20) containing 5% (w/v) skim milk. The blots were then washed six times with TBST and incubated for 1 hour at room temperature with secondary HRP-conjugated antibodies diluted 5000-fold in 5% (w/v) skim milk in TBST. After repeating the washing steps, signals were detected with enhanced chemiluminescence reagent. Immunoblots were developed using a film automatic processor (SRX-101; Konica Minolta Medical) and films were scanned at 600 dpi (PowerLook 1000; UMAX). Figures were generated using Photoshop/Illustrator (Adobe). The densities of bands were measured with ImageJ. For phospho-antibody immunoprecipitation, KCC isoforms were immunoprecipitated from indicated cell extracts. 2 mg of the indicated clarified cell extract were mixed with 15 μg of the indicated phospho-specific KCC antibody conjugated to 15 μl of protein-G-Sepharose, in the added presence of […] of the dephosphorylated form of the phosphopeptide antigen, and incubated 2 hours at 4° C. with gentle shaking. Immunoprecipitates were washed three times with 1 mL of lysis buffer containing 0.15 M NaCl and twice with 1 ml of buffer A. Bound proteins were eluted with 1×LDS sample buffer.
Brain homogenates were prepared as previously described (Bhuiyan et al. (2017) Journal of cerebral blood flow and metabolism: official journal of the International Society of Cerebral Blood Flow and Metabolism 37: 2780-2794). Mice were anesthetized with 5% isoflurane vaporized in N20 and 02 (3:2), then decapitated. […] The pellet was re-suspended in the homogenization buffer. Protein content in both membrane and cytosolic fractions was determined by the standard bicinchoninic acid method.
Referring to FIG. 14A, representative immunoblots (IB) of phospho-SPAK/OSR1 (pSPAK/pOSR1), phospho-KCC3 and phospho-NKCC1 (pNKCC1) in mouse brains studied 24 hrs post-reperfusion after ischemic stroke are shown. Membrane protein fractions were prepared from contralateral (CL) and ipsilateral (IL) cerebral hemispheres. Vehicle (Veh, DMSO) or ZT-1a (5 mg/kg) was administered as described in FIG. 11A, FIG. 11B, and FIG. 13. Na^+-K^+ ATPase α-subunit and GAPDH served, respectively, as loading controls for membrane and cytosol fractions.
Referring to FIG. 14B, densitometry analyses of immunoblots (similar to those in panel A) of pSPAK/pOSR1, pNKCC1, tSPAK/tOSR1, and tNKCC1 in mouse brains studied 24 hrs reperfusion after tMCAO are shown. Data are means±SEM, n=5 per group (male 3, female 2). *p<0.05.

Compound: Cc1cc(C(C#N)c2ccc(Cl)cc2)c(Cl)cc1NC(=O)c1cc(Cl)ccc1O (stereo not shown) [ZT-1a, 5-chloro-N-(5-chloro-4-((4-chlorophenyl)(cyano)methyl)-2-methylphenyl)-2-hydroxy-benzamide]
- co-immunoprecipitation of WNK1 with SPAK (SPAK-WNK1 interaction): potently abolished
- decrease of post-IVH CSF hypersecretion [1]: ~57±6.2%
- reduction of ischemia-induced elevations of pSPAK and pNKCC1 (pSPAK/pOSR1 and pNKCC1; compared to vehicle-control mice): 55-65%
- effect on ischemia-induced increases of pSPAK/pOSR1 and pNKCC1 (pSPAK/pOSR1 and pNKCC1; ipsilateral cortex membrane fractions, 24 hrs reperfusion, 5 mg/kg): prevented ischemia-induced increases
